From ChEMBL document CHEMBL3046471, “Evaluation of the anti-inflammatory activity of some pyrrolo[2,3-d]pyrimidine derivatives” (2013) come the findings set out here.

Holding throughout (format): functional
For experiment [1], the system named is Rattus norvegicus. The experiment can be described thus: Anti-inflammatory activity in sc dosed Sprague-Dawley Rattus norvegicus (rat) assessed as inhibition of carrageenan-induced paw edema administered at 1 hr prior to carrageenan injection measured at 4 hr post-carrageenan challenge by water plethysmometer. (In the carrageenan paw model, swelling and tenderness develop within hours.)

In experiment [2] the test system is Rattus norvegicus. The experiment can be described thus: Anti-inflammatory activity in sc dosed Sprague-Dawley Rattus norvegicus (rat) assessed as inhibition of carrageenan-induced paw edema administered at 1 hr prior to carrageenan injection measured at 3 hr post-carrageenan challenge by water plethysmometer.
The test system of experiment [3] is Rattus norvegicus. The experiment is described as follows: Anti-inflammatory activity in sc dosed Sprague-Dawley Rattus norvegicus (rat) assessed as inhibition of carrageenan-induced paw edema administered at 1 hr prior to carrageenan injection measured at 2 hr post-carrageenan challenge by water plethysmometer.
Experiment [4] deals with Rattus norvegicus. The experiment is described as follows: Anti-inflammatory activity in sc dosed Sprague-Dawley Rattus norvegicus (rat) assessed as inhibition of carrageenan-induced paw edema administered at 1 hr prior to carrageenan injection measured at 1 hr post-carrageenan challenge by water plethysmometer.
The subject of experiment [5] is Rattus norvegicus. The experiment is described as follows: Anti-inflammatory activity in Sprague-Dawley Rattus norvegicus (rat) assessed as inhibition of carrageenan-induced paw edema at 70 mg/kg, sc administered at 1 hr prior to carrageenan injection measured at 4 hr post-carrageenan challenge by water plethysmometer. The following applies: route subcutaneous.
Experiment [6] deals with Rattus norvegicus. The experiment is described as follows: Anti-inflammatory activity in Sprague-Dawley Rattus norvegicus (rat) assessed as inhibition of carrageenan-induced paw edema at 70 mg/kg, sc administered at 1 hr prior to carrageenan injection measured at 3 hr post-carrageenan challenge by water plethysmometer. To be noted: route subcutaneous.
The test system of experiment [7] is Rattus norvegicus. The experiment can be described thus: Anti-inflammatory activity in Sprague-Dawley Rattus norvegicus (rat) assessed as inhibition of carrageenan-induced paw edema at 70 mg/kg, sc administered at 1 hr prior to carrageenan injection measured at 2 hr post-carrageenan challenge by water plethysmometer. The following applies: route subcutaneous.

In experiment [8] the test system is Rattus norvegicus. The experiment is described as follows: Anti-inflammatory activity in Sprague-Dawley Rattus norvegicus (rat) assessed as inhibition of carrageenan-induced paw edema administered at 70 mg/kg, sc at 1 hr prior to carrageenan injection measured at 1 hr post-carrageenan challenge by water plethysmometer. The following applies: route subcutaneous.

With `COc1ccc(-n2cc(-c3ccccc3)c3c(NN)ncnc32)cc1`, the “inhibition (INH)” value in experiment [1] is 50.26%; in experiment [2], 41.73%; in experiment [3], 8.85%; in experiment [4], 23.04%.

For the compound `Cc1ccc(-n2c(-c3ccccc3)c(-c3ccccc3)c3c2ncn2c(=O)[nH]nc32)cc1`, the “inhibition (INH)” value in experiment [1] is listed as 42.85%; in experiment [2], 19.7%; in experiment [3] it was 0%; in experiment [4] it was 0%.

With `COc1ccc(-n2c(-c3ccccc3)c(-c3ccccc3)c3c(Cl)ncnc32)cc1`, the “inhibition (INH)” value is listed as 45.39% in experiment [1], 33.64% in experiment [2], 0% in experiment [3] and 0% in experiment [4].

For `Cc1ccc(-n2c(-c3ccccc3)c(-c3ccccc3)c3c2ncn2c(C)nnc32)cc1`, the “inhibition (INH)” value is reported as 23.81% in experiment [1], 16.91% in experiment [2], 10% in experiment [3] and 7.39% in experiment [4].

Turning to `Cc1ccc(-n2cc(-c3ccccc3)c3c(N/N=C/c4ccccc4)ncnc32)cc1`, the “inhibition (INH)” value in experiment [1] is listed as 41.8%; in experiment [2], 27.7%; in experiment [3], 0%; in experiment [4], 0%.

In general, inhibition in vivo refers to the relative decrease from the control value, in per cent. Turning to `CC(C)Cc1ccc(C(C)C(=O)O)cc1` (stereo unspecified) [IBUPROFEN], the inhibition in vivo at 70 mg/kg in experiment [5] was determined as 69.5%; in experiment [6], 60.7%; in experiment [7] it was 45%; in experiment [8], 6.08%.

Consider `Cc1ccc(-n2cc(-c3ccccc3)c3c(NN)ncnc32)cc1`, for which the “inhibition (INH)” value in experiment [1] is on record as 39.21%; in experiment [2], 45.4%; in experiment [3], 0%; in experiment [4], 0%.

Consider `COc1ccc(-n2c(-c3ccccc3)c(-c3ccccc3)c3c2ncn2c(=O)[nH]nc32)cc1`, for which the “inhibition (INH)” value in experiment [1] amounted to 36.5%; in experiment [2] it was 18.5%; in experiment [3], 10.38%; in experiment [4] it was 1.45%.

As to `COc1ccc(-n2c(-c3ccccc3)c(-c3ccccc3)c3c(NN)ncnc32)cc1`, the “inhibition (INH)” value in experiment [1] was 62.38%; in experiment [2], 61.4%; in experiment [3] it was 16.92%; in experiment [4] it was 13.48%.

As to `COc1ccc(-n2cc(-c3ccccc3)c3c2ncn2cnnc32)cc1`, the “inhibition (INH)” value in experiment [1] stood at 36.19%; in experiment [2], 33.46%; in experiment [3] it was 0%; in experiment [4] it was 0%.

With `COc1ccc(-n2cc(-c3ccccc3)c3c2ncn2c(=S)[nH]nc32)cc1`, the “inhibition (INH)” value in experiment [1] is on record as 47.62%; in experiment [2], 28.31%; in experiment [3], 0%; in experiment [4], 0%.

With `COc1ccc(-n2c(-c3ccccc3)c(-c3ccccc3)c3c2ncn2nnnc32)cc1`, the “inhibition (INH)” value in experiment [1] is given as 39.21%; in experiment [2], 19.7%; in experiment [3] it was 0%; in experiment [4], 0%.

Take `COc1ccc(-n2cc(-c3ccccc3)c3c(N/N=C/c4ccccc4)ncnc32)cc1`: the “inhibition (INH)” value in experiment [1] was 66.19%; in experiment [2], 62.68%; in experiment [3], 30.77%; in experiment [4], 23.04%.

Regarding `COc1ccc(-n2cc(-c3ccccc3)c3c(Cl)ncnc32)cc1`, the “inhibition (INH)” value in experiment [1] amounted to 18.89%; in experiment [2], 32.9%; in experiment [3], 17.3%; in experiment [4], 13.4%.

Consider `COc1ccc(-n2c(-c3ccccc3)c(-c3ccccc3)c3c2ncn2cnnc32)cc1`, for which the “inhibition (INH)” value was found to be 47.62% in experiment [1], 27.94% in experiment [2], 15.77% in experiment [3] and 8.69% in experiment [4].

Take `Cc1ccc(-n2c(-c3ccccc3)c(-c3ccccc3)c3c2ncn2cnnc32)cc1`: the “inhibition (INH)” value in experiment [1] turned out to be 44.44%; in experiment [2] it was 15.07%; in experiment [3], 0%; in experiment [4], 0%.

As to `Cc1ccc(-n2cc(-c3ccccc3)c3c2ncn2c(=S)[nH]nc32)cc1`, the “inhibition (INH)” value in experiment [1] turned out to be 39.21%; in experiment [2] it was 33.8%; in experiment [3], 19.23%; in experiment [4], 3.04%.

In the case of `COc1ccc(-n2cc(-c3ccccc3)c3c2ncn2c(C)nnc32)cc1`, the “inhibition (INH)” value in experiment [1] came to 35.98%; in experiment [2], 27.8%; in experiment [3] it was 0.5416%; in experiment [4], 15.94%.

Regarding `COc1ccc(-n2c(-c3ccccc3)c(-c3ccccc3)c3c(N/N=C/c4ccccc4)ncnc32)cc1`, the “inhibition (INH)” value is reported as 62.96% in experiment [1], 54.04% in experiment [2], 32.31% in experiment [3] and 17.39% in experiment [4].

As for `Cc1ccc(-n2c3c(c(-c4ccccc4)c2-c2ccccc2)C2=NNC(=O)CN2C=N3)cc1`, the “inhibition (INH)” value in experiment [1] worked out at 34.92%; in experiment [2] it was 28.31%; in experiment [3] it was 23.08%; in experiment [4], 17.39%.

Regarding `Cc1ccc(-n2c(-c3ccccc3)c(-c3ccccc3)c3c2ncn2c(=S)[nH]nc32)cc1`, the “inhibition (INH)” value was 23.81% in experiment [1], 17.27% in experiment [2], 10.38% in experiment [3] and 0% in experiment [4].

With `Cc1ccc(-n2c(-c3ccccc3)c(-c3ccccc3)c3c2ncn2nnnc32)cc1`, the “inhibition (INH)” value in experiment [1] is 31.59%; in experiment [2], 26.83%; in experiment [3], 11.54%; in experiment [4] it was 5.65%.

As to `Cc1ccc(-n2c(-c3ccccc3)c(-c3ccccc3)c3c(NN)ncnc32)cc1`, the “inhibition (INH)” value in experiment [1] is given as 18.57%; in experiment [2], 29.6%; in experiment [3], 0%; in experiment [4] it was 0%.

`Cc1ccc(-n2c(-c3ccccc3)c(-c3ccccc3)c3c(N/N=C/c4ccccc4)ncnc32)cc1`: the “inhibition (INH)” value in experiment [1] is 32.8%; in experiment [2], 15.44%; in experiment [3], 0%; in experiment [4], 0%.

Consider `COc1ccc(-n2c(-c3ccccc3)c(-c3ccccc3)c3c2ncn2c(C)nnc32)cc1`, for which the “inhibition (INH)” value in experiment [1] is 28.25%; in experiment [2], 14.15%; in experiment [3], 0%; in experiment [4], 0%.

As for `COc1ccc(-n2c3c(c(-c4ccccc4)c2-c2ccccc2)C2=NNC(=O)CN2C=N3)cc1`, the “inhibition (INH)” value in experiment [1] is 32.8%; in experiment [2] it was 15.44%; in experiment [3], 0%; in experiment [4], 0%.

Take `Cc1ccc(-n2cc(-c3ccccc3)c3c2ncn2cnnc32)cc1`: the “inhibition (INH)” value was determined as 28.57% in experiment [1], 10.48% in experiment [2], 0% in experiment [3] and 0% in experiment [4].

With `Cc1ccc(-n2c(-c3ccccc3)c(-c3ccccc3)c3c(Cl)ncnc32)cc1`, the “inhibition (INH)” value in experiment [1] came out at 28.59%; in experiment [2], 31.43%; in experiment [3], 10%; in experiment [4], 3.92%.

In the case of `COc1ccc(-n2cc(-c3ccccc3)c3c(-n4nc(C)cc4C)ncnc32)cc1`, the “inhibition (INH)” value in experiment [1] was 61.9%; in experiment [2], 35.66%; in experiment [3], 23.85%; in experiment [4], 7.82%.

Regarding `Cc1ccc(-n2cc(-c3ccccc3)c3c(Cl)ncnc32)cc1`, the “inhibition (INH)” value was determined as 18.25% in experiment [1], 31.25% in experiment [2], 1.92% in experiment [3] and 1.3% in experiment [4].

With `COc1ccc(-n2c(-c3ccccc3)c(-c3ccccc3)c3c(-n4nc(C)cc4C)ncnc32)cc1`, the “inhibition (INH)” value stood at 74.6% in experiment [1], 63.24% in experiment [2], 6.41% in experiment [3] and 0% in experiment [4].

For `COc1ccc(-n2c(-c3ccccc3)c(-c3ccccc3)c3c2ncn2c(=S)[nH]nc32)cc1`, the “inhibition (INH)” value in experiment [1] is 34.6%; in experiment [2] it was 19.49%; in experiment [3], 20.38%; in experiment [4], 7.39%.

Turning to `Cc1ccc(-n2cc(-c3ccccc3)c3c(-n4nc(C)cc4C)ncnc32)cc1`, the “inhibition (INH)” value in experiment [1] was found to be 59.25%; in experiment [2], 31.37%; in experiment [3] it was 2.56%; in experiment [4] it was 8.7%.

As to `Cc1ccc(-n2cc(-c3ccccc3)c3c2ncn2c(C)nnc32)cc1`, the “inhibition (INH)” value in experiment [1] is 32.85%; in experiment [2] it was 29.5%; in experiment [3] it was 18.85%; in experiment [4], 11.74%.
